These compounds were tested against T1, Recombinant human JARID1B/KDM5B (Homo sapiens, UniProt Q9UGL1) (assay: LANCE Ultra TR-FRET demethylase assay with FLAG-tagged JARID1B). Conditions: 100 nM compound; 500 nM biotinylated H3K4me3 peptide substrate.
T1 construct: purchased Active Motif 31432; host or cells: Sf9 insect cells
T1 sequence (Q9UGL1 whole entry): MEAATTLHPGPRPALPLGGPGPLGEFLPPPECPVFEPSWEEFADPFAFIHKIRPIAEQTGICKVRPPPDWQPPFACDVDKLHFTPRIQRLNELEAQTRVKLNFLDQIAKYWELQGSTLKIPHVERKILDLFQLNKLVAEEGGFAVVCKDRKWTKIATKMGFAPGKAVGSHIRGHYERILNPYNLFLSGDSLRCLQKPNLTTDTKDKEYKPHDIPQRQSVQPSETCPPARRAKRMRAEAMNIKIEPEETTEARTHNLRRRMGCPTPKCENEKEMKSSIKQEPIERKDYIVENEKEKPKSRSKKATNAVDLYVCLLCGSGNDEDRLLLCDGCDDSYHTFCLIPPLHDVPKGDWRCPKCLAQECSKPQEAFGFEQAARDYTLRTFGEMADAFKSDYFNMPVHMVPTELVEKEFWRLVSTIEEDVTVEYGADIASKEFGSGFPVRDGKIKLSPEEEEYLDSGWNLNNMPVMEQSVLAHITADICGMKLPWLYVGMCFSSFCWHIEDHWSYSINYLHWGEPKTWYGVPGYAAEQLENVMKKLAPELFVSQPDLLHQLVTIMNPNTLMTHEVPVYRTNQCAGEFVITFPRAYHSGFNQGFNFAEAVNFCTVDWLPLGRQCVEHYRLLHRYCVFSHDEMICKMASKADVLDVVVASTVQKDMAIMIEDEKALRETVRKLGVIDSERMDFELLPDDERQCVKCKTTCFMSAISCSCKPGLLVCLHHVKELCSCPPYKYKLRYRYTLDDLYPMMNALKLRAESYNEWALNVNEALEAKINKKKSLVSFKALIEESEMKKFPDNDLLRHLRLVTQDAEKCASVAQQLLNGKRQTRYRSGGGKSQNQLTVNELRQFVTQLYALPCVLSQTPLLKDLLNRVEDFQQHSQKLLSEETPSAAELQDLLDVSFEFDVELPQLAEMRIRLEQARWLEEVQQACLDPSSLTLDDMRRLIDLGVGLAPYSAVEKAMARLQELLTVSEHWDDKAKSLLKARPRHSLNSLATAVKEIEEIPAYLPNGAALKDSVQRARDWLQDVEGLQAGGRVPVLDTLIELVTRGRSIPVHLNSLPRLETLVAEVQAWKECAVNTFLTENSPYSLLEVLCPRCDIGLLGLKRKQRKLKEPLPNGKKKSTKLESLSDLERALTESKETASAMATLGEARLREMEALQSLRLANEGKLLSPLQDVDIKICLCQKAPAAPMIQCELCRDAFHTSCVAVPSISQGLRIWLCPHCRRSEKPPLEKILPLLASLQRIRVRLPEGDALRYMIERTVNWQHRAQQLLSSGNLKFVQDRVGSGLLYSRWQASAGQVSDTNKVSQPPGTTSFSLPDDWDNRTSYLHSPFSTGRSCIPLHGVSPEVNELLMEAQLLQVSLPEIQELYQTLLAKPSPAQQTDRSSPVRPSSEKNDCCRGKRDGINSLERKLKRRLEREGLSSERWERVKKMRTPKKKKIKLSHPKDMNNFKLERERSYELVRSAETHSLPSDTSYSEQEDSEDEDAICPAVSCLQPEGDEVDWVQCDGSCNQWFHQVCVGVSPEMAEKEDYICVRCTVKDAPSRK
Format: biochemical
Summary of the method: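 Sf9-expressed N-FLAG full-length JARID1B (10–30 nM) preincubated 5 min with compound at 20, 1 or 0.1 uM (1% DMSO), then 500 nM biotin-H3K4me3 peptide, 500 uM 2-OG, 25 uM Fe(II), 2 mM ascorbate added; 30 min at room temperature in Hepes pH 7.5. H3K4me2/1 product read by TR-FRET 665/590 ratio.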
Work on O=c1[nH]c(COc2ccc(F)c(Cl)c2)nc2c(CNCC3CNCCO3)nccc12 (stereo not shown) [Example 167, 2-((3-chloro-4-fluorophenoxy)methyl)-8-(((morpholin-2-ylmethyl)amino)methyl)pyrido[3,4-d]pyrimidin-4(3H)-one] yielded an inhibition at 0.1 µM greater than 50%.
With CCN(CC)CCCC(C)NCc1nccc2c(=O)[nH]cnc12 (stereo not shown) [Example 87, 8-(((5-(diethylamino)pentan-2-yl)amino)methyl)pyrido[3,4-d]pyrimidin-4(3H)-one] the inhibition at 0.1 µM was less than 20%.
In the case of CN1CCC(CNCc2nccc3c(=O)[nH]c(COc4ccc(Cc5ccccc5)cc4)nc23)C1 (stereo not shown) [Example 144, 2-((4-benzylphenoxy)methyl)-8-((((1-methylpyrrolidin-3-yl)methyl)amino)methyl)pyrido[3,4-d]pyrimidin-4(3H)-one], the inhibition at 0.1 µM is reported as greater than 50%.
O=C(NCCC1CCNCC1)c1cc(OCc2nc3cnccc3c(=O)[nH]2)ccc1Cl [Example 46, 2-chloro-5-((4-oxo-3,4-dihydropyrido[3,4-d]pyrimidin-2-yl)methoxy)-N-(2-(piperidin-4-yl)ethyl)benzamide] was tested, and the inhibition at 0.1 µM was 20 to 50%.
O=C(CNCc1nccc2c(=O)[nH]c(COc3ccc(F)c(Cl)c3)nc12)N1CCC(N2CCCC2)CC1 [Example 234, 2-((3-chloro-4-fluorophenoxy)methyl)-8-(((2-oxo-2-(4-(pyrrolidin-1-yl)piperidin-1-yl)ethyl)amino)methyl)pyrido[3,4-d]pyrimidin-4(3H)-one] gave an inhibition at 0.1 µM greater than 50%.
Cc1cccc(OCc2nc3c(CNCC4CCNCC4)nccc3c(=O)[nH]2)c1 [Example 119, 8-(((piperidin-4-ylmethyl)amino)methyl)-2-((m-tolyloxy)methyl)pyrido[3,4-d]pyrimidin-4(3H)-one] showed an inhibition at 0.1 µM of 20 to 50%.
Work on O=c1[nH]c(C2CCCO2)nc2c(CNCC3CCNCC3)nccc12 (stereo not shown) [Example 193, 8-(((piperidin-4-ylmethyl)amino)methyl)-2-(tetrahydrofuran-2-yl)pyrido[3,4-d]pyrimidin-4(3H)-one] yielded an inhibition at 0.1 µM of less than 20%.
CN1CCC(CNCc2nccc3c(=O)[nH]c(COc4ccc(F)c(Cl)c4)nc23)CC1 [Example 160, 2-((3-chloro-4-fluorophenoxy)methyl)-8-((((1-methylpiperidin-4-yl)methyl)amino)methyl)pyrido[3,4-d]pyrimidin-4(3H)-one] showed an inhibition at 0.1 µM greater than 50%.
With O=c1[nH]c(COc2ccccc2Cl)nc2c(CNCC3CCN(Cc4ccccc4)CC3)nccc12 [Example 105, 8-((((1-benzylpiperidin-4-yl)methyl)amino)methyl)-2-((2-chlorophenoxy)methyl)pyrido[3,4-d]pyrimidin-4(3H)-one] the inhibition at 0.1 µM was greater than 50%.
In the case of O=c1[nH]c(COCc2ccccc2)nc2c(CNC[C@H]3CCNC3)nccc12 [Example 204, (S)-2-((benzyloxy)methyl)-8-(((pyrrolidin-3-ylmethyl)amino)methyl)pyrido[3,4-d]pyrimidin-4(3H)-one], the inhibition at 0.1 µM is reported as 20 to 50%.
Work on O=c1[nH]c(COc2ccc(Cc3ccccc3)cc2)nc2c(CNC[C@@H]3CCNC3)nccc12 [Example 151, (R)-2-((4-benzylphenoxy)methyl)-8-(((pyrrolidin-3-ylmethyl)amino)methyl)pyrido[3,4-d]pyrimidin-4(3H)-one] yielded an inhibition at 0.1 µM of 20 to 50%.
For CN1CCC(CNCc2nccc3c(=O)[nH]c(COCc4cccc(Cl)c4)nc23)CC1 [Example 207, 2-(((3-chlorobenzyl)oxy)methyl)-8-((((1-methylpiperidin-4-yl)methyl)amino)methyl)pyrido[3,4-d]pyrimidin-4(3H)-one], the inhibition at 0.1 µM was greater than 50%.
O=c1[nH]c(COCc2ccccc2Cl)nc2c(CNCC3CCNCC3)nccc12 [Example 209, 2-(((2-chlorobenzyl)oxy)methyl)-8-(((piperidin-4-ylmethyl)amino)methyl)pyrido[3,4-d]pyrimidin-4(3H)-one] showed an inhibition at 0.1 µM greater than 50%.
With CCN(CC)C1CCN(C(=O)CNCc2nccc3c(=O)[nH]c(COc4ccc(F)c(Cl)c4)nc23)C1 (stereo not shown) [Example 236, 2-((3-chloro-4-fluorophenoxy)methyl)-8-(((2-(3-(diethylamino)pyrrolidin-1-yl)-2-oxoethyl)amino)methyl)pyrido[3,4-d]pyrimidin-4(3H)-one] the inhibition at 0.1 µM was greater than 50%.
In the case of O=c1[nH]c(COc2cccc(Cl)c2)nc2c(CNCC3CCNCC3)nccc12 [Example 132, 2-((3-chlorophenoxy)methyl)-8-(((piperidin-4-ylmethyl)amino)methyl)pyrido[3,4-d]pyrimidin-4(3H)-one], the inhibition at 0.1 µM is reported as greater than 50%.
With Cc1cc(Cl)ccc1OCc1nc2c(CNCC3CCNCC3)nccc2c(=O)[nH]1 [Example 137, 2-((4-chloro-2-methylphenoxy)methyl)-8-(((piperidin-4-ylmethyl)amino)methyl)pyrido[3,4-d]pyrimidin-4(3H)-one] the inhibition at 0.1 µM was 20 to 50%.
O=c1[nH]c(C2CCCC2)nc2c(CNCC3CCNCC3)nccc12 [Example 191, 2-cyclopentyl-8-(((piperidin-4-ylmethyl)amino)methyl)pyrido[3,4-d]pyrimidin-4(3H)-one] gave an inhibition at 0.1 µM of less than 20%.
Compound CC(Oc1ccc(Cc2ccccc2)cc1)c1nc2c(CNC[C@H]3CCNC3)nccc2c(=O)[nH]1 (stereo partly drawn) [Example 213, 2-(1-(4-benzylphenoxy)ethyl)-8-(((((S)-pyrrolidin-3-yl)methyl)amino)methyl)pyrido[3,4-d]pyrimidin-4(3H)-one] has an inhibition at 0.1 µM of 20 to 50%.
Compound O=c1[nH]c(COc2ccc(F)c(Cl)c2)nc2c(CNCc3ccncc3)nccc12 [Example 173, 2-((3-chloro-4-fluorophenoxy)methyl)-8-(((pyridin-4-ylmethyl)amino)methyl)pyrido[3,4-d]pyrimidin-4(3H)-one] has an inhibition at 0.1 µM of 20 to 50%.
O=c1[nH]c(COCc2ccccc2)nc2c(CNCC3CCNCC3)nccc12 [Example 202, 2-((benzyloxy)methyl)-8-(((piperidin-4-ylmethyl)amino)methyl)pyrido[3,4-d]pyrimidin-4(3H)-one] gave an inhibition at 0.1 µM of 20 to 50%.
O=c1[nH]c(COc2cccc(Cl)c2)nc2c(CNCC3CCN(Cc4ccccc4)CC3)nccc12 [Example 106, 8-((((1-benzylpiperidin-4-yl)methyl)amino)methyl)-2-((3-chlorophenoxy)methyl)pyrido[3,4-d]pyrimidin-4(3H)-one] showed an inhibition at 0.1 µM greater than 50%.
C[C@H](Oc1ccc(F)c(Cl)c1)c1nc2c(CNCC3CCNCC3)nccc2c(=O)[nH]1 [Example 219, (S)-2-(1-(3-chloro-4-fluorophenoxy)ethyl)-8-(((piperidin-4-ylmethyl)amino)methyl)pyrido[3,4-d]pyrimidin-4(3H)-one] was tested, and the inhibition at 0.1 µM was 20 to 50%.
For O=C(CNCc1nccc2c(=O)[nH]c(COc3ccc(F)c(Cl)c3)nc12)N[C@@H]1CCCNC1 [Example 230, (R)-2-(((2-((3-chloro-4-fluorophenoxy)methyl)-4-oxo-3,4-dihydropyrido[3,4-d]pyrimidin-8-yl)methyl)amino)-N-(piperidin-3-yl)acetamide], the inhibition at 0.1 µM was greater than 50%.
O=c1[nH]cnc2c(CNC[C@@H]3CCCNC3)nccc12 [Example 98, (R)-8-(((piperidin-3-ylmethyl)amino)methyl)pyrido[3,4-d]pyrimidin-4(3H)-one] gave an inhibition at 0.1 µM of less than 20%.

These compounds were tested on MDA-MB-231 cell migration (assay: Wound healing assay). Conditions: 24 h treatment; compared to DMSO; FIG. 1.
Format: cell-based
Procedure: Breast cancer cells (MDA-MD-231) were seeded into 12-well plates (2500 cells/well), at bottom of which culture-inserts were implemented. The cells were cultured to subconfluence in RPMI1640 medium supplemented with 0.5% FBS and 100 μg/ml penicillin/streptomycin, and then starved in serum-free media for one day at 37° C. and 5% CO2. The inserts were removed to generate two cell patches separated each other by 0.9 mm of ‘wound fields’. Cultures were then treated with test compounds for 24 h. The results of wound healing assays at indicated time were photographed under microscopy with ×40 magnification after generating the wound fields. […] Similar results were obtained in three independent samples. The cancer cells were stained with 0.1% crystal violet at 24-hours time points.
With CCN(CC)CCCC(C)NCc1nccc2c(=O)[nH]cnc12 (stereo not shown) [Example 87, 8-(((5-(diethylamino)pentan-2-yl)amino)methyl)pyrido[3,4-d]pyrimidin-4(3H)-one] the “MDA-MB-231 cell migration (wound healing)” value was “inactive”.
With CN1CCC(CNCc2nccc3c(=O)[nH]c(COc4ccc(Cc5ccccc5)cc4)nc23)C1 (stereo not shown) [Example 144, 2-((4-benzylphenoxy)methyl)-8-((((1-methylpyrrolidin-3-yl)methyl)amino)methyl)pyrido[3,4-d]pyrimidin-4(3H)-one] the “MDA-MB-231 cell migration (wound healing)” value was “suppressed MDA-MB-231 cell migration”.

Each compound was assayed on MDA-MB-231 breast cancer cells (assay: Cell invasion assay (transwell, BME)). Conditions: 10 μM; 24-h incubation; FIG. 2.
Format: cell-based
Procedure: The ability of MDA-MB-231 breast cancer cells to invade into the basement membrane through a layer of BME (Basement Membrane Extract) was determined by using transwell inserts in a 24-well plate. The pore size of membrane was […]. The basement membrane was reconstituted by loading cold BME on top of the polycarbonate filter of the inserts of the transwell plate. After gelation of Matrigel at 37° C., MDA-MB-231 cells were plated into the inserts (1×10^5 cells/0.3 ml/well), and complete media were added to the lower wells (0.5 ml/well). To analyze the effect of 10 μM of compounds No. 87, 167, isonicotinic acid r or SAHA, was present in the cell suspensions. After a 24-h incubation, the noninvasive cells were remained within the inserts while cells that traversed through the BME and the polycarbonate filter were attached to the lower surface of the filter. The penetrated cells were then stained with 0.1% crystal violet.
With O=c1[nH]c(COc2ccc(F)c(Cl)c2)nc2c(CNCC3CNCCO3)nccc12 (stereo not shown) [Example 167, 2-((3-chloro-4-fluorophenoxy)methyl)-8-(((morpholin-2-ylmethyl)amino)methyl)pyrido[3,4-d]pyrimidin-4(3H)-one] the “MDA-MB-231 breast cancer cell invasion potential” value was “decreased the MDA-MB-231 breast cancer cell invasion potential”.
In the case of O=C(CCCCCCC(=O)Nc1ccccc1)NO [SAHA, reference compound], the “MDA-MB-231 breast cancer cell invasion potential” value is reported as “decreased the MDA-MB-231 breast cancer cell invasion potential”.

From patent US9834550B2, “Pyridopyrimidinone compounds for modulating the catalytic activity of histone lysine demethylases (KDMs)” (Dong-A Socio Holdings Co., Ltd., priority 2014, dated 2017)
